pIC50: −log10 of the molar value.
Columns and labels:
[1] = Metabolic stability in pooled human liver microsomes; format: in vitro ADME; conditions: pH 7.6, 1 μM compound, 37° C., NADPH, read-out: Half-life - t½ human liver microsomes
Excerpt: Stability in human liver microsomes refers to the susceptibility of compounds to biotransformation in the context of selecting and/or designing drugs with favorable pharmacokinetic properties. The primary site of metabolism for many drugs is the liver. Human liver microsomes contain the cytochrome P450s (CYPs), and thus represent a model system for studying drug metabolism in vitro Enhanced stability in human liver microsomes is associated with several advantages, including increased bioavailability and adequate half-life, which can enable lower and less frequent dosing of patients. Thus, enhanced stability in human liver microsomes is a favorable characteristic for compounds that are to be used for drugs.
The metabolic degradation of the test compound was assayed at 37° C. with pooled human liver microsomes. The final incubation volume of 60 μl per time point contains TRIS buffer pH 7.6 at room temperature (0.1 M), magnesium chloride (5 mM aqueous solution), microsomal protein (1 mg/mL for human) and the test compound at a final concentration of 1 μM. Following a short preincubation period at 37° C., the reactions were initiated by addition of betanicotinamide adenine dinucleotide phosphate, reduced form (NADPH, 1 mM), and terminated by transferring an aliquot into acetonitril after different time points. After centrifugation (10000 g, 5 min), an aliquot of the supernatant was assayed by HPLC-MS/MS as described above for the MDCK assay P-gp for the amount of parent compound. The half-life was determined by the slope of the semi-logarithmic plot of the concentration-time profile.

MDR1 (P-gp) = biological target: T1, MDR1 (P-gp) (Homo sapiens, UniProt P08183); assay: MDCK assay P-gp (permeability across MDCK-MDR1 monolayers); format: in vitro ADME; conditions: for Papp A→B at 2 h: apical-to-basal, MDCK-MDR1 monolayers, pH 7.4; for efflux ratio at 2 h: pH 7.4, Papp (b-a) divided by Papp (a-b), MDCK-MDR1, read-out: efflux ratio PEBA/PEAB
T1 construct: expressed in transfected cells; host or cells: MDCKII (Madin-Darby canine kidney)
Method: The MDCK assays provide information on the potential of a compound to pass the blood brain barrier. Permeability measurements across polarized, confluent MDCK-MDR1 cell monolayers grown on permeable filter supports are used as an in vitro absorption model: apparent permeability coefficients (PE) of the compounds across the MDCK-MDR1 cell monolayers are measured (pH 7.4, 37° C.) in apical-to-basal (AB) and basal-to-apical (BA) transport direction. The AB permeability (PEAB) represents drug absorption from the blood into the brain and the BA permeability (PEBA) drug efflux from the brain back into the blood via both, passive permeability as well as active transport mechanisms mediated by efflux and uptake transporters that are expressed on the MDCK-MDR1 cells, predominantly by the overexpressed human MDR1. Identical or similar permeabilities in both transport directions indicate passive permeation (PEBA/PEAB≤1), vectorial permeability points to additional active transport mechanisms. Higher PEBA than PEAB (PEBA/PEAB>5) indicates the involvement of active efflux mediated by MDR1, which might compromise the goal to achieve sufficient brain exposure. Therefore, this assay provides valuable support for selection of compounds applicable for further in vivo testing. High permeability not limited by efflux at the blood brain barrier is a favorable characteristic for compounds that are to be used for drugs acting primarily in the CNS.
Apparent permeability coefficients (Papp) of the compounds across the MDCK-MDR1 monolayers (MDCKII cells transfected with human MDR1 cDNA expression plasmid) are measured in apical-to-basal (AB) and basal-to-apical (BA) direction. MDCK-MDR1 cells (6×10^5 cells/cm^2) are seeded on filter inserts (Corning, Transwell, polycarbonate, 0.4 μm pore size) and cultured for 9 to 10 days. Compounds dissolved in DMSO stock solution (1-20 mM) are diluted with HTP-4 aqueous buffer (128.13 mM NaCl, 5.36 mM KCl, 1 mM MgSO4, 1.8 mM CaCl2, 4.17 mM NaHCO3, 1.19 mM Na2HPO4, 0.41 mM NaH2PO4, 15 mM HEPES, 20 mM glucose, pH 7.4) supplemented with 0.25% BSA to prepare the transport solutions (final concentration: 1 or 10 μM, final DMSO<=0.5%). The transport solution is applied to the apical or basolateral donor side for measuring A-B or B-A permeability, respectively. The receiver side contains HTP-4 buffer supplemented with 0.25% BSA. Samples are collected at the start and end of experiment from the donor and at various time intervals for up to 2 hours also from the receiver side for concentration measurement by HPLC-MS/MS (RapidFire High-throughput MS System (Agilent) coupled to QTrap 6500 (AB Sciex) or TSQ Vantage (Thermo Scientific)). Sampled receiver volumes are replaced with fresh receiver solution. Efflux ratio is calculated dividing the Papp (b-a) values by the Papp (a-b) values.

Nav1.6 = Nav1.6 (Homo sapiens, UniProt Q9UQD0); assay: Nav 1.6 inhibition, IonWorks Quattro electrophysiology; format: cell-based; conditions: for inhibition at 1 µM / inhibition at 5 µM: normalized to vehicle control (0%) and maximal inhibition control (100%); for inhibition of Nav1.6 currents (in words): reference compounds, FIG. 1 and FIG. 2
Method: Determination of Nav 1.6.Inhibition
IonWorks Quattro electrophysiological platform
The compounds were prepared in DMSO at 300× the final assay concentrations of 1 and 5 μM.
The 300×DMSO stock solutions were transferred into assay plates where 2 μl per well of each 300× stock solution were placed. All assay plates were stored at −80° C. until the day of assay.
On the day of the assay, the appropriate assay plate was thawed at room temperature, centrifuged, and 198 μl of external recording solution was added and mixed thoroughly. This provided a 1:100 dilution. A further 1:3 dilution occurred upon addition to the cells in the IonWorks Quattro electrophysiological platform, giving a 1:300 dilution in total. On each assay plate, at least 8 wells were reserved for vehicle control (0.3% DMSO) and at least 8 wells for each positive control specific to the cell line tested. The positive controls were tested at a maximal blocking and an approximate IC50 concentration. As positive control Lidocaine at concentrations of 30 and 1000 μM was used.
The solutions for recording Nav1.6 currents were as follows:
Amphotericin B was used to obtain electrical access to the cell interior at a final concentration of 200 μg/ml in internal recording solution.
State-dependent inhibition: Sodium channels when held at depolarized potential or long test pulse, the channels open and inactivate and then stay inactivated until the membrane potential is stepped back to hyperpolarized potentials, when the inactivated channels recover from inactivation into closed state.
Cells were held at −120 mV. In order to completely inactivate the sodium channels (pulse 1), the cells were pulsed to +0 mV for 2500 ms and stepped back to −120 mV for 10 ms (to completely recover from inactivation, however channels that had drugs bound to them will not recover from inactivation) before stepping to +0 mV for 20 ms (pulse 2).
Both the positive and vehicle control data associated with each cell line assayed are shown below as an example. The mean is shown for each positive and negative control as solid symbol with the total number of individual well replicates given next to the solid symbol. In addition, the individual data of each well are shown on the graph as open symbols so that the variation about the mean value can be readily assessed.
Shown below are the assay controls for the Nav1.6 IonWorks Quattro assay.
Tables 3 and 4 show the normalized percentage inhibition of Nav1.6 channel. […] (see also the figure Assay Control Results above).

NMDA NR1/NR2B receptor = biological target: T2, NMDA NR1/NR2B receptor (Homo sapiens, UniProt Q05586+Q13224); assay: In vitro NMDA NR1/NR2B cell assay (FLIPR, intracellular calcium induced by glycine/glutamate); format: cell-based; conditions: HEK293 cells expressing NMDA NR1/NR2B; 20 μM glycine, 1 μM glutamate; read-out: IC50 (in vitro NR2B affinity, FLIPR assay)
T2 construct: host or cells: HEK293, tetracycline-inducible expression
Method: A human HEK293 cell line with tetracyclin-inducible expression of NMDA NR1/NR2B receptor was used as a test system for compound efficacy and potency. The cell line was purchased from ChanTest, Catalog #CT6121. Compound activity was determined by measuring the effect of compounds on intracellular calcium concentration induced by glycine/glutamate agonism in a FLIPRtetra system (Molecular Devices).
The cells were obtained as frozen cells in cryo-vials and stored until use at −150° C. Cells were grown in culture medium (DMEM/F12, 10% FBS, 5 μg/mL Blasticidin, 150 μg/mL Zeozin, 500 μg/mL Geneticin). […] For sub-culturing the cells were detached from flasks by Versene. For the assay, cells were detached, washed twice with induction medium (DMEM/F12 without glutamine, 10% FBS, 2 μg/mL Tetracycline, 2 mM Ketamine) and seeded to 384 well pure coat amine plates (Becton Dickinson, 50000 cells per well in 50 μl) 48 h prior to assay in induction medium.
The test compounds were dissolved in 100% DMSO at a concentration of 10 mM and in a first step diluted in DMSO to a concentration of 5 mM, followed by serial dilution steps in 100% DMSO. Dilution factor and number of dilution steps may vary according to needs. Typically 8 different concentrations by 1:5 dilutions were prepared in duplicate, further intermediate dilutions (1:37.5) of the substances were carried out with aqueous assay buffer (137 mM NaCl, 4 mM KCl, 1.8 mM CaCl2, 10 mM HEPES, 10 mM Glucose, pH 7.4) resulting in a compound concentration 3 times above the final test concentration and DMSO at 2.7% resulting in 0.9% final DMSO concentration in the assay.
At the assay day cells were washed 3× with assay buffer (as described above), 10 μL buffer remained in the wells after washing. 10 μL Ca kit loading buffer (AAT Bioquest; prepared from the kit containing the following components: Component A: Fluo-8 NW dissolved in 200 μL DMSO and 20 μl of this solution are mixed with 10 ml buffer prepared out of component B and C, Component B: 10× Pluronic® F127 Plus diluted 1:10 in component C, Component C: HHBS (Hanks with 20 mM Hepes) was added to the cells and the plates were incubated with lid for 60 minutes at room temperature. 20 μl assay buffer containing 60 μM glycine (20 μM final) and 3 μM glutamate (1 μM final) was added to column 1-23, column 24 got assay buffer without glycine/glutamate to serve as negative unstimulated control. Fluorescence (indicating the calcium influx as a result of the NR1/NR2B ion channel activation) was read on the FLIPRtetra device for 60 seconds to monitor the glutamate induced effects. After 2 minutes 20 μL of compound dilution prepared as described above or controls (row 1-22) in assay buffer were carefully added to the wells. […] The average of 2 measurements at 5 minutes and […] 10 seconds after compound addition is calculated and further used for IC50 calculations. Each assay microtiter compound dilution plate contained wells (in column 23 or 24) with DMSO controls instead of compound as controls for glycine/glutamate induced fluorescence (high controls) and wells with 1 μM of a reference NR2B NAM as low controls (Compound 22; reference: Layton, Mark E et al, ACS Chemical Neuroscience 2011, 2(7), 352-362).
The output file of the reader contains the well number and measured average fluorescence units. For data evaluation and calculation, the measurement of the low control was set as 0% control and the measurement of the high control was set as 100% control. The IC50 values were calculated using the standard 4 parameter logistic regression formula. Calculation: [y=(a−d)/(1+(x/c)^b)+d], a=low value, d=high value; x=conc M; c=IC50 M; b=slope.

T1 sequence (P08183 whole entry): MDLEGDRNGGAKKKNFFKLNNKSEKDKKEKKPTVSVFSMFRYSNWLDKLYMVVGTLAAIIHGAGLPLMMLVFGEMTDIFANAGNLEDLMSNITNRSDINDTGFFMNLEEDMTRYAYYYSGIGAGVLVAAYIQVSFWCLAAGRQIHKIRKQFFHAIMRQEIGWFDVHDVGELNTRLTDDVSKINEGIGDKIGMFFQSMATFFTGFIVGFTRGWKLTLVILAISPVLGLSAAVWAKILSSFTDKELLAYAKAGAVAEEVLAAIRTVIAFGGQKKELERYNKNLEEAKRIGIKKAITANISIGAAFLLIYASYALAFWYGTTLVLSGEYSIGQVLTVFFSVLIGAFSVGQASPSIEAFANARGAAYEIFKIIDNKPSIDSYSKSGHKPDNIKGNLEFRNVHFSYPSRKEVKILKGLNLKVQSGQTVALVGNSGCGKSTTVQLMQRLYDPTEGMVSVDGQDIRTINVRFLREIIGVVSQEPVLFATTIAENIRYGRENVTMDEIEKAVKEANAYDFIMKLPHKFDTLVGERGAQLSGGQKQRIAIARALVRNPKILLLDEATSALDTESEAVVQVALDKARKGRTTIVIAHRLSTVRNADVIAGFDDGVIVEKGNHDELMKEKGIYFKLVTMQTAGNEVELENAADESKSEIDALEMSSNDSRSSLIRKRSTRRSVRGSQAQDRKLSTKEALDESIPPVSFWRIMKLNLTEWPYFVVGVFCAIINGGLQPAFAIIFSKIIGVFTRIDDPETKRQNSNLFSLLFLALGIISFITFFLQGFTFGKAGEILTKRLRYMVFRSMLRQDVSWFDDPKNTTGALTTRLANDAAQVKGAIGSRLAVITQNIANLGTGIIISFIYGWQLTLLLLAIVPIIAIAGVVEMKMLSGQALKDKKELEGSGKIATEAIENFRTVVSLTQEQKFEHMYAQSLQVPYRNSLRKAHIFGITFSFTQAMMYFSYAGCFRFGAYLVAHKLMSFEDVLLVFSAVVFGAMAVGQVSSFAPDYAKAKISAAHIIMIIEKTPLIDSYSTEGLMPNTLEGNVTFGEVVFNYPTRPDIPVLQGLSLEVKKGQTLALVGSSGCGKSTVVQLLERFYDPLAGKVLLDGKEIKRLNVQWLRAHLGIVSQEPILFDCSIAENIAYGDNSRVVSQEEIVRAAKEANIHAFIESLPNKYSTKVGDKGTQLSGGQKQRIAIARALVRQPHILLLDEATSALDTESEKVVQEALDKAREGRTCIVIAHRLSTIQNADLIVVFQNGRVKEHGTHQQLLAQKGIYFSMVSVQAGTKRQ
T2 sequence (Q13224 27-1484, other chains not shown): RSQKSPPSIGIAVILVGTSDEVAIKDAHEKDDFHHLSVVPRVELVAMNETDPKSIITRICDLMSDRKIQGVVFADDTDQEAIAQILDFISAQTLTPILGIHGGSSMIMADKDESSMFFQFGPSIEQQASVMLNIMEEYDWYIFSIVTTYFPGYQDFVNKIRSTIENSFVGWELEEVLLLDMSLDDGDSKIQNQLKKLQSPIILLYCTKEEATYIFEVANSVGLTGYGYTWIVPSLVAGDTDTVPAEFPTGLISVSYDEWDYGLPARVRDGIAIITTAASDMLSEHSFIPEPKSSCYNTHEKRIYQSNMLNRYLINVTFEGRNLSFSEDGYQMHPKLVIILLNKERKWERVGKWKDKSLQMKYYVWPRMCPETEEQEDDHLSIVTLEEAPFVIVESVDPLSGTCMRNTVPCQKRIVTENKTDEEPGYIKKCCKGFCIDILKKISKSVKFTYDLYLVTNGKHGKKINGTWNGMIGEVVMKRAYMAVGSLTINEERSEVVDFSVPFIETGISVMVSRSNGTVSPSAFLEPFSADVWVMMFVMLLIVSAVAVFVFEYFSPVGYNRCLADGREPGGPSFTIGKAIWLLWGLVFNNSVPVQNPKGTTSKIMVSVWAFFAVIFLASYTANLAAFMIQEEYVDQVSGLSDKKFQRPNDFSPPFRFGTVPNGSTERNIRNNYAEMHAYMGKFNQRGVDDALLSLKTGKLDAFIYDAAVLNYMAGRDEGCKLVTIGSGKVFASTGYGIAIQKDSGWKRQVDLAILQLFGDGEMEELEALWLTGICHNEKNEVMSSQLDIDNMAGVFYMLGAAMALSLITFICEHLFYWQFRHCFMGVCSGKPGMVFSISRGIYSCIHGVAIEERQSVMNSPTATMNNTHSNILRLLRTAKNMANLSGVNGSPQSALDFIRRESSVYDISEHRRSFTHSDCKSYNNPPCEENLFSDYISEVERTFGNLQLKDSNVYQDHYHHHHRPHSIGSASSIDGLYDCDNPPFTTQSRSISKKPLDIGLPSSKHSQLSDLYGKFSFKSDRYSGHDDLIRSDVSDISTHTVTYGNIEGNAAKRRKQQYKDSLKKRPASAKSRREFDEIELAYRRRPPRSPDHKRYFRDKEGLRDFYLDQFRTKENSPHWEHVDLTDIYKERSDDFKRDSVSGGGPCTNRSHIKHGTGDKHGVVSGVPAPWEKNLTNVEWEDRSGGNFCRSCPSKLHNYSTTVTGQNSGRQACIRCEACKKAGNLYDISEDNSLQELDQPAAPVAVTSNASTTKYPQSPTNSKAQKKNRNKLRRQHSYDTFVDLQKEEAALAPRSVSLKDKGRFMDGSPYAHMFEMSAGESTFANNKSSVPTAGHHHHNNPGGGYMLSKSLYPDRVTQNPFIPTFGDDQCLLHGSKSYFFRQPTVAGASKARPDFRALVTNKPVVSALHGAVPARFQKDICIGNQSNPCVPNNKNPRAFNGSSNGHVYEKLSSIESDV
Chain of Nav1.6 (Q9UQD0 whole entry): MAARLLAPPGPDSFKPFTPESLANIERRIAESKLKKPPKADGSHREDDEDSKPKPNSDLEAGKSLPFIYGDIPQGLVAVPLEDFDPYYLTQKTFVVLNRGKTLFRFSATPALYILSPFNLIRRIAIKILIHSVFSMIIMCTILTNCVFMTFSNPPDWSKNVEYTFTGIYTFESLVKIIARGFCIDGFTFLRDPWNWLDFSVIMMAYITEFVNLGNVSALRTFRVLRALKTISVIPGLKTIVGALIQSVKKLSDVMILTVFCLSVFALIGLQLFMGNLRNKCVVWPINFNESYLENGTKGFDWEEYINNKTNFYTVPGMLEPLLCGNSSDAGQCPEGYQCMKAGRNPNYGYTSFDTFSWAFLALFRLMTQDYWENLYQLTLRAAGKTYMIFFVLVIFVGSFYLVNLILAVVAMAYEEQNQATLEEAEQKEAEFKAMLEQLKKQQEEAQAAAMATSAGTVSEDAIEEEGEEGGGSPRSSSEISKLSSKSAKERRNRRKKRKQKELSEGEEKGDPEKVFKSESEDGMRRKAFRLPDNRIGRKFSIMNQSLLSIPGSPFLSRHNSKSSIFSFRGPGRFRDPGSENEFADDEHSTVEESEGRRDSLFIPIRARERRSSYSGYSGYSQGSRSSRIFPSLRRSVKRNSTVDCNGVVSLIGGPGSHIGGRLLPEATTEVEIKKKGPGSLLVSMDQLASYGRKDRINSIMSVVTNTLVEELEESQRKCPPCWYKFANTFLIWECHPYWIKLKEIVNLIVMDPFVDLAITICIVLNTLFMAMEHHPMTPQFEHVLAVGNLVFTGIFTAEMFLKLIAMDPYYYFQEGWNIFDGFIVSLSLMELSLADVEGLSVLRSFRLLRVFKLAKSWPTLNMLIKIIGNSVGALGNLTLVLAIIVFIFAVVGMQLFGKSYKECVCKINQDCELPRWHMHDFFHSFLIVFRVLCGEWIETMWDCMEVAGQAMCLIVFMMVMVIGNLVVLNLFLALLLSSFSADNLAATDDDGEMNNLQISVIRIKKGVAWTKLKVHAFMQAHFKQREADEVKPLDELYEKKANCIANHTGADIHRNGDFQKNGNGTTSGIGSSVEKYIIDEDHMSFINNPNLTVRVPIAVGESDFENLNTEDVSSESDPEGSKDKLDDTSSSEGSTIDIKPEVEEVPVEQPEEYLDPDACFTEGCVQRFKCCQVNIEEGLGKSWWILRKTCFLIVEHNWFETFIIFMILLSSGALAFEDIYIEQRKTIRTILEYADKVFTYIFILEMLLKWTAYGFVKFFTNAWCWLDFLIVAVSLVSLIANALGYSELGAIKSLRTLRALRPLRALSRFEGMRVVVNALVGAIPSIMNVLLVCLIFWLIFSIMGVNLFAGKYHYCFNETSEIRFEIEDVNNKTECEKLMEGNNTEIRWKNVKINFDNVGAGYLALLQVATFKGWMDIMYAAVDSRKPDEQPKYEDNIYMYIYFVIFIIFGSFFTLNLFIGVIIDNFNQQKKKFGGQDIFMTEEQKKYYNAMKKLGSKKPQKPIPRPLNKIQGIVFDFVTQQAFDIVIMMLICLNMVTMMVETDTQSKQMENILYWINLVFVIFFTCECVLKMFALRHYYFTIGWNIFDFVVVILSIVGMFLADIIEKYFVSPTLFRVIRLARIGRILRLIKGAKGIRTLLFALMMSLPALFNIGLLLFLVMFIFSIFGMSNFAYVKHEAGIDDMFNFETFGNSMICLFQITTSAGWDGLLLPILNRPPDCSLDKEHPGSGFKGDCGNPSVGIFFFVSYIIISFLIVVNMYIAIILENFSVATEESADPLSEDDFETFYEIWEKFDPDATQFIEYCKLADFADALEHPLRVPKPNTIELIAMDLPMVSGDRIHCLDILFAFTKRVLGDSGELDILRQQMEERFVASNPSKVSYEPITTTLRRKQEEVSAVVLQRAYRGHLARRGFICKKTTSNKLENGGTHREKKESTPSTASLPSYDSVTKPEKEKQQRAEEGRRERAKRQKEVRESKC

SMILES | pIC50 (NMDA NR1/NR2B receptor) | other results
CNC(=O)C1CN(Cc2ccc(Oc3ccc(F)cc3F)nc2)CCO1 (centres unmarked) [Example 11] |  | half-life at 1 μM [1]: > 2.17 h; Papp A→B at 2 h (MDR1 (P-gp)): 72 ×10⁻⁶ cm/s; efflux ratio at 2 h (MDR1 (P-gp)): 0.6; inhibition at 1 µM (Nav1.6): 4.2%; inhibition at 5 µM (Nav1.6): -3.6%
CNC(=O)[C@@H]1CN(Cc2ccc(Oc3ccc(F)cc3F)nc2)CCO1 [Example 11] | 6.99 | 
CNC(=O)C1CN(Cc2ccc(Oc3ccc(C)cc3F)nc2)CCO1 (centres unmarked) [Example 12] |  | half-life at 1 μM [1]: > 2.17 h; Papp A→B at 2 h (MDR1 (P-gp)): 80 ×10⁻⁶ cm/s; efflux ratio at 2 h (MDR1 (P-gp)): 0.7; inhibition at 1 µM (Nav1.6): 5.1%; inhibition at 5 µM (Nav1.6): 10.2%
CNC(=O)[C@@H]1CN(Cc2ccc(Oc3ccc(C)cc3F)nc2)CCO1 [Example 12] | 6.93 | 
CNC(=O)[C@@H]1CN(Cc2ccc(Oc3ccc(C)cc3C)nc2)CCO1 [Example 13] | 6.35 | 
CNC(=O)[C@@H]1CN(Cc2ccc(Oc3ccc(F)cc3)nc2)CCO1 [Example 14] | 6.70 | 
CNC(=O)[C@@H]1CN(Cc2ccc(Oc3ccc(Cl)cc3F)nc2)CCO1 [Example 15] | 7.16 | 
CNC(=O)[C@@H]1CN(Cc2ccc(Oc3ccc(Cl)cc3)nc2)CCO1 [Example 16] | 6.69 | 
CNC(=O)[C@@H]1CN(Cc2ccc(Oc3ccccc3)cn2)CCO1 [Example 35] | 6.34 | 
CNC(=O)[C@@H]1CN(Cc2ccc(Oc3ccccc3)nc2)CCO1 [Example 36] | 6.45 | 
CNC(=O)[C@@H]1CN(Cc2ccc(Oc3c(F)cccc3F)nc2)CCO1 [Example 37] | 6.69 | 
CNC(=O)[C@@H]1CN(Cc2ccc(Oc3c(C)cccc3F)nc2)CCO1 [Example 38] | 6.38 | 
CNC(=O)[C@@H]1CN(Cc2ccc(Oc3c(F)cccc3F)cn2)CCO1 [Example 39] | 6.55 | 
CNC(=O)[C@@H]1CN(Cc2ccc(Oc3cc(F)ccc3F)nc2)CCO1 [Example 40] | 6.34 | 
CNC(=O)[C@@H]1CN(Cc2ccc(Oc3cc(F)ccc3Cl)nc2)CCO1 [Example 41] | 6.54 | 
CCN(CC)CC(=O)Nc1c(C)cccc1C [Lidocaine, reference compound] |  | inhibition at 1000 µM (Nav1.6; read-out: maximum inhibition at P1 (not normalized)): 46.4 to 47.2%; inhibition of Nav1.6 currents (in words) (Nav1.6): inhibited evoked currents in a concentration and use dependent manner
CCCCNc1ccc(C(=O)OCCN(C)C)cc1 [Tetracaine, reference compound] |  | inhibition of Nav1.6 currents (in words) (Nav1.6): much stronger at depolarized potentials than at hyperpolarized potential
